Columns and labels:
[1] = system: acid α-glucosidase (GAA); experiment: Ex vivo GAA enhancement assay in Pompe patient-derived lymphoblast cell lines treated with DNJ (4-MU-alpha-Glc lysate activity); type: cell-based, human; conditions: five days
Method: Lymphoblast cell lines were derived from 26 patients and treated with DNJ (0, 30, 100 and 300 μM) for five days. Lymphoblastoid cell lines (LCLs) are leukocyte cultures (primarily B cells) that have been transformed with the Epstein-Barr Virus (EBV) to produce proliferative suspension cultures. Leukocyte cultures were prepared as described in Example 2, and transformed with the EBV to establish the lymphoblast cells. Because well established LCLs can be very fast-growing (even those with genetic and metabolic disorders), their density must be carefully controlled to prevent overcrowding over an extended period. The following protocol details cell seeding density, treatment with a test compound (i.e. DNJ) treatment compound washout, lysing, and assaying of LCLs for the measurement of acid α-glucoside (GAA) with the test compound.
• 1. All cell culture work was performed in a BLII Bio-safety cabinet using sterile techniques. LCL culture was expanded to a T75 by transferring 7e^6-1e^7 cells total to a T75 and add 40 ml 37° C. complete growth media. • 2. Optimal LCL cultures were selected in T75 flasks based on cell density and viability. A cell count was performed on these cultures. Usually a cell density of 1e^6 cells/ml maintains LCLs at the highest viability (90-98% viable). Cells densities higher than 1e^6 cells/ml drastically reduce the overall viability in the culture. • 3. A sterile 50 ml conical centrifuge tube was used to prepare a cell suspension in the appropriate amount of complete growth media to obtain a final cell density of approximately 2.0×10^5 cells/ml at a volume of at least 20 ml. (For example, if the original culture contains 1e^6 cells/ml, 16 ml media should be added to 4 ml of the cell suspension in the staging tube to create a density of 2e^5 cells/ml in a volume of 20 ml.). Cell suspensions were dispensed into four labeled T25 flasks at 5 ml each total volume. This process is repeated for each LCL to be processed. All flasks were placed in a humidified 5% CO2 37° C. incubator overnight. The original T75 cultures can be expanded and returned to the same incubator, if necessary. 5. Treatment with Test Compound • 1. Treatment of the cells with the DNJ test compound was performed 24 hours after the cells were seeded into T25 flasks. • 2. 5 ml of each treatment concentration is required for each cell line. Cell lines were treated with test compound over a concentration range of 0, x, 3x, and 10x test compound. • 3. A 2x stock of test compound solution was prepared in sterile 15 ml or 50 ml centrifuge tubes for each condition and 5 ml solution was added to 5 ml pre-incubated culture. Stock concentrations of 0, 60, 200, and 600 μM DNJ were made; when added to the flasks, the final concentrations were 0, 30, 100, and 300 μM DNJ. • 4. Each set of flasks were marked with the appropriate treatment concentrations, and 5 ml from the corresponding stock suspension were added to each flask. All flasks were returned to the incubator for 5 days.
• 1. After five days (120 hours) of treatment, 100% of the media was exchanged in the cell suspension with compound-free complete media in the following manner; • 2. The contents of each T25 was transferred to a sterile 15 ml conical centrifuge tube that had been pre-numbered to maintain order of concentration range. • 3. After each set was transferred, each T25 was washed with 5 ml blank RPMI 1640 (no phenol red). • 4. The tubes were centrifuged at 21° C. for 10 min at 600 g. During the spin, the blank RPMI was removed from the flasks by aspiration, maintaining sterility. • 5. Following the centrifugation, the supernatant was removed from the tubes by aspiration and the pellets were resuspended in 10 ml complete media. The cell suspensions were transferred back to their respective flasksAll flasks were returned to the 5% CO2 37° C. incubator overnight.

[2] = system: GAA; experiment: GAA levels after longer treatment of cynomolgus monkeys; type: in vivo; conditions: treatment 4-13 weeks
[3] = molecular target: T1, GAA (Mus musculus, UniProt P70699); experiment: GAA levels after longer treatment of wild type mice; type: in vivo; conditions: treatment 4-13 weeks
T1 construct: treatment of wild type mice and cynomolgus monkeys for longer periods of time; from tissue; host or cells: wild type mice
T1 sequence (P70699 70-953): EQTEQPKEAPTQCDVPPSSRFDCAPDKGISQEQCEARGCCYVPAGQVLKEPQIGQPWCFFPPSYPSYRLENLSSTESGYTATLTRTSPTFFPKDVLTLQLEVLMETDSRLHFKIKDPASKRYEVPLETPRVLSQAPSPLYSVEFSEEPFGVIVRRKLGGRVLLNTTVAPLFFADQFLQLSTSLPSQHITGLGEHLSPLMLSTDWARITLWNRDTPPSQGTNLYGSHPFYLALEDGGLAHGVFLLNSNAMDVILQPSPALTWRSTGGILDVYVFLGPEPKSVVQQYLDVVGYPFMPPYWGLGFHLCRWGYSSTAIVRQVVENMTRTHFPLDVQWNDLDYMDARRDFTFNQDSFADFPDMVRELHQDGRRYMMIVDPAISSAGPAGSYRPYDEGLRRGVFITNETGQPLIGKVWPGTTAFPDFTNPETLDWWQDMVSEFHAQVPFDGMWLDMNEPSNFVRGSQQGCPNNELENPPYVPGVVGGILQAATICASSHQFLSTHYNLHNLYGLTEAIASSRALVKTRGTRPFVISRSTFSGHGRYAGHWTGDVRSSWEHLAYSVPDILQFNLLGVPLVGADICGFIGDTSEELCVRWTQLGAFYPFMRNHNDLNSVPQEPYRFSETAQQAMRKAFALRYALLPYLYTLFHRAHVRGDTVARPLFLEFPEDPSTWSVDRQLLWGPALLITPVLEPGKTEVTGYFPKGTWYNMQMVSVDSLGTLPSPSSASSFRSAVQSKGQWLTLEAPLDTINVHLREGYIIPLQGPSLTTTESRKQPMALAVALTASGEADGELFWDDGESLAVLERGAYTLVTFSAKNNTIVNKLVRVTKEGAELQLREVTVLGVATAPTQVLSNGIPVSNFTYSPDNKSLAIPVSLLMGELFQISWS

[4] = 24/26 patient lymphoblast cell lines, DNJ 30-300 μM
[5] = patient cell lines with at least one missense mutation
[6] = patient cell lines with one copy of IVS1 13T>G and one copy of a non-missense null mutation

OC[C@H]1NCC(O)[C@@H](O)C1O (stereo partly drawn) [DNJ, 1-deoxynojirimycin]
increase in GAA levels, mean [1, 4]: 93%
increase in GAA levels, range [1, 4]: 7-620%
dose-dependent increase in GAA levels, mean [1, 5]: 219%
dose-dependent increase in GAA levels, range [1, 5]: 7-620%
increase in GAA levels, mean [1, 6]: 22%
increase in GAA levels, range [1, 6]: 7-51%
patient cell lines with dose-dependent increase in GAA levels ([1]; patient-derived lymphoblasts, DNJ 0, 30, 100 and 300 μM): 24/26
increase in GAA levels [2]: ≥ 2 fold
increase in GAA levels [3]: ≥ 2 fold
